Experiments:
[1] = target: T1, Gamma-aminobutyric acid receptor subunit alpha-3 (Homo sapiens, UniProt P34903)
T1 sequence (P34903 whole entry): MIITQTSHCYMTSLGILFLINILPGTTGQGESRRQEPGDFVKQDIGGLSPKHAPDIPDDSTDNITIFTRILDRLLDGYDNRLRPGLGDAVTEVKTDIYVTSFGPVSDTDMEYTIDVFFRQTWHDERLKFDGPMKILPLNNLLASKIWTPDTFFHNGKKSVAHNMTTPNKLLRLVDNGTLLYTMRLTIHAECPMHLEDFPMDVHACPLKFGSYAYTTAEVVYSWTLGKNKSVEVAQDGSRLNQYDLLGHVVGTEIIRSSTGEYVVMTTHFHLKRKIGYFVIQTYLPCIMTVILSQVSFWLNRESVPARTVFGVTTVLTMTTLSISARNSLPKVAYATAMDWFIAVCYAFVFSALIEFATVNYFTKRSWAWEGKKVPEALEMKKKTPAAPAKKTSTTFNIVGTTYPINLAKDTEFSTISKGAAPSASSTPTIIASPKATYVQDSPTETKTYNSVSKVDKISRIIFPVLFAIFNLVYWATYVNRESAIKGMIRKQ

[2] = target: Gamma-aminobutyric acid (GABA) B receptor 1 (Rattus norvegicus, UniProt Q6MFX8)
Chain of Gamma-aminobutyric acid (GABA) B receptor 1 (Q6MFX8 whole entry): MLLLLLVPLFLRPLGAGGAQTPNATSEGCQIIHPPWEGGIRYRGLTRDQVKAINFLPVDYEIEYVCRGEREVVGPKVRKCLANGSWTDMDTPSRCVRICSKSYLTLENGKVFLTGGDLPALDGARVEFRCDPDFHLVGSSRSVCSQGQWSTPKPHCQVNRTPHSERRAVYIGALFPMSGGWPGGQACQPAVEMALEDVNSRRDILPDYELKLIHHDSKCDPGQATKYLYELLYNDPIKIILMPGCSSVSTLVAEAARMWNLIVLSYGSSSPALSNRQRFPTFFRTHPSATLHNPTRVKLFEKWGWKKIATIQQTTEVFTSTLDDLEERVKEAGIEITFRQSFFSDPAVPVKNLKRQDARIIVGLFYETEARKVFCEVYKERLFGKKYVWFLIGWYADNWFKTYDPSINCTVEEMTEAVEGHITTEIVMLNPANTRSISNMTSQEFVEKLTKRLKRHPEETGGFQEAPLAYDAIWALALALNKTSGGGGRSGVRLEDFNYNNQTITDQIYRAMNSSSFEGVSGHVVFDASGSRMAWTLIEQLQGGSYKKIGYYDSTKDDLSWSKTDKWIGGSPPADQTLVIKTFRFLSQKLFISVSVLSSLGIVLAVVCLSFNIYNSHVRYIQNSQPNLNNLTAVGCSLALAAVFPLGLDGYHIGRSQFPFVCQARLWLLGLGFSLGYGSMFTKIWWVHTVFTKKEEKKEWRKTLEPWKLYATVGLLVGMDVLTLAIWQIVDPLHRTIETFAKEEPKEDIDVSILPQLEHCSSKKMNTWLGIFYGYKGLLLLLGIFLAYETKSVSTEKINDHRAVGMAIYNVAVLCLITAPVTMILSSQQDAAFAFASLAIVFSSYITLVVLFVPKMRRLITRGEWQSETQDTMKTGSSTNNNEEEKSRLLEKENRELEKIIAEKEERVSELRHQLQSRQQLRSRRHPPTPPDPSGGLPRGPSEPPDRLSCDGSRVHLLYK

## NCCC[PH](=O)O [(3-aminopropyl)phosphinic acid]
[1]
  Ki: 2470 nM
[2]
  Ki: 5 nM

## CP(=O)(O)CCCN [CGP35024]
[1]
  Ki: 750 nM

## CCCCP(=O)(O)CCCN [CGP36742]
[1]
  Ki: > 10000 nM

Source: BindingDB's records for PubMed 9226416 (University of Sydney, 1997)
